Experimental data reported in US7214506B2, “Method for treating onychomycosis” (Kaken Pharmaceutical Co., Ltd., priority 1999, dated 2007).
Marks after values point to notes of the source that are not given here.

Columns and labels:
[1] = tested on: Trichophyton mentagrophytes SM-110 strain; experiment: Evaluation of drug effect on tinea unguium, guinea pig model, present evaluation method; type: in vivo; conditions: two days after last treatment, 30 consecutive days, topical 1% solution 0.1 ml or oral 40 mg/kg; for The number of feet with fungus-negative nail/Total number of infected feet: detection limit 10 CFU/feet
Experimental: A fungal solution was prepared in the same manner as in the pretreatment of Comparative Example 1 except for changing Trichophyton mentagrophytes KD-04 strain to Trichophyton mentagrophytes SM-110 strain.
A guinea pig model of tinea unguium and tinea pedis was prepared in the same manner as in the above-mentioned preparation of the guinea pig model in interdigital tinea pedis except for changing male Hartley strain guinea pigs of 7 weeks age to male Hartley strain guinea pigs of 5 weeks age and except that the paper disc and the bandage was removed 21 days after the infection changing from seven days after the infection. The invasion of dermatophytes in plantar skin and nail plate was observed 60 days after the infection.
As test compounds, solutions were prepared by dissolving raw powders of KP-103, amorolfine and terbinafine in a concentration of 1% thereof to mixture solution of polyethylene grycole #400: ethanol (75:25 v/v), respectively. Capsule of terbinafine was prepared by crushing the marketed tablet, suspending in the concentration of 100 mg/ml into Miglyol 812 (available from Mitsuba trade Co., Ltd)with glass homogenizer uniformity, and injecting the resulting suspension into each capsule in the concentration of 40 mg/kg depending on body weight measured on administration day. A solution of KP-103, amorolfine or terbinafine in the amount of 0.1 ml was applied a plantar skin and nail of one foot once a day for 30 consecutive days. In case of terbinafine capsule, one capsule (40 mg/kg) was administered orally.
Animals were sacrificed two days after the last treatment. One hind foot was excised and wiped sufficiently with the cotton sweb containing alcohol. Nails (three in total) of one hind foot was excised and miced by a scissors. It was transferred into glass homogenizer and was homogenized adding 4 ml double-concentration phosphate buffered saline (Phosphate Buffered Salts, available from Takara Shuzo Co., Ltd.) containing 4% of trypsin derived from pig pancreas (available from BIOZYME Laboratories Limited). The reaction was carried out with shaking at 37° C. for one hour. After a centrifugation, the obtaining precipitate was washed three times by centrifuging with phosphate buffered saline in order to remove trypsin. The precipitate was suspended with 4 ml of distilled water and put into dialysis membrane (fractional molecular weight: 12,000–14,000, made of cellulose, available from VISKASE SALES Corporation). Dialysis was carried out into 3 L of distilled water at 4° C. for 14 days. Dialysis water was replaced twice a day 28 times in total. After a centrifugation, 1 ml of phosphate buffered saline was added to the precipitate obtained by removing the supernatant to prepare a suspension. This suspension was defined as stock solution and was diluted by tenfold. To Sabouraud dextrose agar medium (20 ml) containing the antibiotic substance described in Comparative Example 1 were added 100 μl of the stock solution or the dilution. […] The number of fungus-negative feet in the nail was counted. When the colony was appeared on the medium, the number of colonies (CFU) was counted to calculate the number of colonies in the nail of one foot by the dilution rate. After Kruskal Wallis Test was carried out for the number of fungi in the nail, the multiple comparison was carried out based on Tukey method to analysis the significant difference between groups. Those results were shown in FIG. 3 and Table 3 thereof was made. In FIG. 3, the number of CFU in nails in each treated group was plotted and the mean number of CFU was shown by horizontal line and numerical value.
Using the above-mentioned suspension, sufficient removal of the remaining drug was determined by the present evaluation method in the same manner as in Example 2.

[2] = tested on: Trichophyton mentagrophytes SM-110 strain; experiment: Evaluation of drug effect on tinea pedis, guinea pig model, present evaluation method; type: in vivo; conditions: two days after last treatment; 30 consecutive days; topical 1% solution 0.1 ml or oral 40 mg/kg; detection limit 20 CFU/feet
Experimental: A fungal solution was prepared in the same manner as in the pretreatment of Comparative Example 1 except for changing Trichophyton mentagrophytes KD-04 strain to Trichophyton mentagrophytes SM-110 strain. A guinea pig model of tinea unguium and tinea pedis was prepared in the same manner as in the above-mentioned preparation of the guinea pig model in interdigital tinea pedis except for changing male Hartley strain guinea pigs of 7 weeks age to male Hartley strain guinea pigs of 5 weeks age and except that the paper disc and the bandage was removed 21 days after the infection changing from seven days after the infection. The invasion of dermatophytes in plantar skin and nail plate was observed 60 days after the infection. As test compounds, solutions were prepared by dissolving raw powders of KP-103, amorolfine and terbinafine in a concentration of 1% thereof to mixture solution of polyethylene grycole #400: ethanol (75:25 v/v), respectively. Capsule of terbinafine was prepared by crushing the marketed tablet, suspending in the concentration of 100 mg/ml into Miglyol 812 (available from Mitsuba trade Co., Ltd)with glass homogenizer uniformity, and injecting the resulting suspension into each capsule in the concentration of 40 mg/kg depending on body weight measured on administration day. A solution of KP-103, amorolfine or terbinafine in the amount of 0.1 ml was applied a plantar skin and nail of one foot once a day for 30 consecutive days. In case of terbinafine capsule, one capsule (40 mg/kg) was administered orally. Skin pieces of hind feet were excised from each animal described in Example 4. A removal of the drug and a determination of the remaining drug were carried out in the same as in Example 2 except that dialysis for removing the drug carried out for 3 days and that dialysis water was changed six times in total. The sufficient removal of the remaining drug was confirmed. Then the drug effect was evaluated in the same manner as in Example 4 (detection limit: 20 CFU/feet). Those results were shown in FIG. 4 and Table 4 thereof was made. In FIG. 4, the number of CFU in the skin in each treated group was plotted and the mean number of CFU was shown by horizontal line and numerical value.

[3] = tested on: Trichophyton mentagrophytes KD-04 strain; experiment: Conventional method for evaluating drug effect, guinea pig model of interdigital type of tinea pedis; type: in vivo; conditions: for The number of fungus-negative feet/Total number of infected feet: 1% solution 0.1 ml topical once a day for 10 days, lanoconazole as marketed Astat solution; for The number of fungus-negative feet/Total number of infected feet, Conventional Method: five days after the last treatment, left feet, 1% solutions in PEG #400:ethanol vehicle
Experimental: (§1) Millipore Filter (made by Millipore Corporation, HA, diameter 47 mm, 0.45 μm) was placed on Brain-Heart-infusion agar medium (available from Nissui Pharmaceutical Co., LTD.), and 10^6 cells of microcondium of Trichophyton mentagrophytes KD-04 strain were applied thereon. The cultivation was carried out at 30° C. under 17% of CO2 for 7 days. After the cultivation, just amount of physiological saline containing 0.05% of Tween 80 was dropped on the filter and arthroconidia were collected using a platinum loop. After a hyphal mass was removed by a filtration with a sterile gauze, the number of arthroconidia in the filtrate was calculated by hemocytometer to adjust in concentration of 1×10^8 arthroconidia/ml to obtain a fungal inocula.
(§2) A guinea pig model of interdigital type of tinea pedis was prepared according to the method of Arika et al (Antimicrobial Agents and Chemotherapy, 36: 2523–2525, 1992). Concretely, in two hind foots of male Hartley strain guinea pigs of 7 weeks age, the interdigital skin was lightly abraded with sandpaper. A paper disc (AAdisc available from Whatmen International Ltd cut in 8×4 mm) moisten with the above-mentioned solution of the inoculated organism was applied onto the region between the interdigital toes of the hind feet and fixed using Self-adhering-Foam Pad (Restone 1560M; available from 3M) and adhesive stretch bandage (ELASTPORE; available from Nichiban Co., Ltd). The paper disc and the bandage were removed seven days after of the infection.
(§3) A marketed 1% lanoconazole solution (commercial name: Astat (trade name) solution) and a solution in which KP-103 was solved in a concentration of 1% in polyethylene grycole #400: ethanol (75:25 v/v) mixture were used as test substance. Each solution in amount of 0.1 ml was applied to the plantar skin once a day from 10 days after the infection for 10 days.
The conventional method was described as follows. For the infected control group without an application of the drug, the KP-103-treated group and the lanoconazole-treated group, 10 guinea pigs (hereinafter referred to “animal”) were employed, respectively. Animals of each group were sacrificed two days after and 30 days after the last treatment. Their two hind feet were excised and wiped with the cotton sweb containing alcohol sufficiently. A skin of whole sole was excised and cut into 15 skin pieces in total including 12 skin pieces from plantar parts and 3 skin pieces from an interdigital part. Each skin pieces were placed on 20 ml of Sabouraud dextrose agar medium (available from Difco laboratories) containing 50 μg of chloramphenicol (available from Wako Pure Chemical Industries, Ltd.), 100 μg of gentamicin (available from Schering-Plough Corporation), 50 μg of 5-fluorocytosine (available from Wako Pure Chemical Industries, Ltd.) and 1 mg of cycloheximide (available from nacalai tesque, Inc.) per ml. An antibiotic substance added to the medium was set to a condition which enable bacteria not to grow and which enable fungi to grow without problem. […] In the evaluation of the effect 30 days after last treatment, two days after the last treatment the treated feet were wiped with a cotton swab containing alcohol and fixed with the bandage in order to prevent a reinfection. The bandage was changed once a week.
A model was prepared according to Comparative Example 1. Lanoconazole being a test compound was used for a therapeutic experience as 1% solution with the same vehicle as KP-103. For the infected control group without an application of a drug, the KP-103-treated group and the lanoconazole-treated group, 20 animals were employed, respectively. The two hind feet were excised from each animal five days after the last treatment in the same manner as in Comparative Example 1. A total of 20 light feet were used for an evaluation by the conventional method, and a total of 20 right feet were used in the present evaluation method. […]

[4] = tested on: Trichophyton mentagrophytes KD-04 strain; experiment: Present evaluation method (drug removed by dialysis, viable fungus detected), guinea pig model of interdigital tinea pedis; type: in vivo; conditions: five days after the last treatment; for The number of fungus-negative feet/Total number of infected feet, Present evaluation method: right feet, drug removed by dialysis, detection limit 10 CFU/feet
Experimental: as §1, §2, §3
A model was prepared according to Comparative Example 1. Lanoconazole being a test compound was used for a therapeutic experience as 1% solution with the same vehicle as KP-103. […]

Trichophyton = experiment: In vitro antifungal activity against dermatophytes; type: cell-based
fungus = conditions: 20 feet, cited from earlier work
[5] = 30 days after the last treatment
[6] = two days after the last treatment

Row | SMILES | Mean number of fungal cells in the nail (Log CFU ± SD) [1] [Log CFU] | The number of feet with fungus-negative nail/Total number of infected feet [1] | Mean number of fungal cells in the skin (Log CFU ± SD) [2] | The number of feet with fungus-negative skin/Total number of infected feet [2] | The number of fungus-negative feet/Total number of infected feet [3, 5] | The number of fungus-negative feet/Total number of infected feet, Conventional Method [3] | The number of fungus-negative feet/Total number of infected feet [3, 6] | rate of a fungus-negative foot evaluated by the present evaluation method [4] [%] | The number of fungus-negative feet/Total number of infected feet, Present evaluation method [4] | growth inhibitory concentration against Trichophyton (Trichophyton) [ng/mL] | in vitro activity against Trichophyton relative to KP-103 (Trichophyton) | fungus-negative feet (fungus; 2 days after the last treatment) | feet with relapse (fungus; [5])
1 | CN(C/C=C/C#CC(C)(C)C)Cc1cccc2ccccc12 [Terbinafine solution, terbinafine] | 3.21 ± 0.47 | 0/10 | <1.3** Log CFU | 10/10** |  |  |  |  |  |  |  |  | 
2 | CCC(C)(C)c1ccc(CC(C)CN2C[C@@H](C)O[C@@H](C)C2)cc1 (stereo partly shown) [Amorolfine solution, amorolfine] | 3.26 ± 0.54 | 0/10 | 1.74 ± 0.45 Log CFU | 4/10 |  |  |  |  |  |  |  |  | 
3 | C=C1CCN([C@H](C)[C@](O)(Cn2cncn2)c2ccc(F)cc2F)CC1 [KP-103, (2R,3R)-2-(2,4-difluorophenyl)-3-(4-methylenepiperidine-1-yl)-1-(1H-1,2,4-triazole-1-yl)butane-2-ol] | 2.20 ± 0.56 | 0/10 | <1.3** Log CFU | 10/10** | 16/20 | 19/20 | 20/20 | 85 | 17/20 |  |  |  | 
4 | N#C/C(=C1/SCC(c2ccccc2Cl)S1)n1ccnc1 (stereo not shown) [Lanoconazole, lanoconazole] |  |  |  |  | 9/20 | 20/20 | 20/20 |  | 3/20 | 15.6 | eight-fold more active than KP-103 | all feet out of 20 feet | 11 out of 20
